Entries after “also recorded” stand apart in the source; their conditions may differ.
Key:
[1] = tested on: Uninfected DMVEC
Method: (§1) To promote a transformed phenotype, KSHV-infected DMVEC were cultured post-confluency in 35 mm Primaria culture dishes. […] Cells were examined daily for evidence of phenotypic change using a phase-contrast microscope and results recorded photographically.
(§2) To directly test whether KSHV-induction of c-Kit is necessary for virus-induced transformation, the consequence of inhibiting c-Kit signaling in KSHV-transformed DMVEC was evaluated.

[2] = tested on: SCLC cell lines; conditions: via inhibition of c-Kit activity; cited from earlier work
[3] = tested on: DMVEC
[4] = tested on: KSHV-infected DMVEC; assay: Transformation assay (focus formation, disorganized growth) in post-confluent culture; type: cell-based, human
Method: as §1, §2
In this approach, a dominant negative c-Kit protein lacking the cytoplasmic ATP-binding and phosphotransferase domains necessary for c-Kit signaling (Ad/c-KitDN) was expressed in KSHV-infected cells using the adenovirus delivery system outlined above.

[5] = tested on: human Jurkat T cell line; assay: Proliferation of Jurkat T cell line in response to exogenous IL-2; type: cell-based
[6] = tested on: KSHV-infected DMVEC; assay: XTT-based proliferation assay, response to exogenous SCF; type: cell-based, human
Method: (§3) Proliferation of mock and KSHV-infected DMVEC, and the SCLC line HTB-172, was quantitated using an XTT-based assay. Cells were added to Primaria 96 well trays (Becton-Dickinson) at 1×104 or 5×10^4 cells/well. […] XTT (Roche, Molecular Biochemicals, Indianapolis, Ind.) was added 48 hours later according to the manufacturers instructions. Absorbance was read after 4 to 6 hours on a microplate reader. The HTB-172 line was obtained from the American Type Culture Collection (ATCC, Rockville, Md.).
Mock- and KSHV-infected DMVEC were cultured in growth factor depleted medium in the absence and presence of recombinant SCF and proliferation was measured using an XTT-based dye reduction assay^(112).

[7] = tested on: ORF 65 (lytic gene); assay: RT-PCR of late (lytic) gene ORF 65 in PMA-induced KSHV-infected DMVEC; type: cell-based; conditions: for late gene (ORF 65) expression: compound 1 hour before PMA, 48 hours, concentration not given
Method: (§4) KSHV genes ORF 64 and K12 (kaposin) were used as reverse transcriptase PCR (RT-PCR) templates as described previously^(43). ORF 65 sequences were amplified with primers 5-[…] (SEQ ID NO: 5) and 5′-[…] (SEQ ID NO: 6). Cellular genes (HPRT, GAPDH, or -actin) were amplified from each sample as a control for cDNA synthesis. PCR products were visualized following electrophoresis on agarose-ethidium bromide gels.
(§5) Cells were treated with inhibitory compounds or peptides for one hour and lytic replication was induced by PMA treatment for 48 hours. Ganciclovir was used as control compound for inhibition of KSHV-replication and late gene expression^(10). After 48 hours, cells were harvested and expression of the latent gene K12 as well as the late gene ORF 65 was analyzed by RT-PCR. For control, expression of cellular genes α-actin or HPRT was monitored. […] However, both Ht31 and Haloperidol inhibited late gene expression, but not latent gene expression. Since both inhibitors potentially interfere with PKC signaling, we examined whether Ht31 or Haloperidol would inhibit the PMA-mediated induction of immediate early genes. […] In addition, the peptide Ht-31 inhibits the association between A kinase anchoring proteins (AKAPs) and PKA (21, 64). […] Therefore we conclude that the signal transduction pathways regulated by the type I sigma receptor and AKAPs are required for lytic progression of KSHV.
There is no specific inhibitor of Gravin identified, however the Ht-31 peptide derived from the PKA R-II binding domain of the human thyroid AKAP inhibits the AKAP/PKA interactions in vivo and in vitro ^(21, 64). A stearated version of this peptide is membrane permeable and can block the AKAP/PKA interaction in tissue culture. A requirement for PKA signaling can be inferred from the up-regulation of Gravin, and to further investigate the requirement for the AKAP/PKA interaction for KSHV late gene expression, infected and uninfected cells were treated with stearated Ht-31 at two concentrations (FIG. 7B). […] A stearated control peptide that is unable to interact with PKA, Ht-31P, had no effect on late gene expression (FIG. 7B, lanes 4-5). […] It is not possible to conclude whether the inhibitory effect of Ht-3 1 occurs through Gravin or any other AKAP, since Ht-31 inhibits a wide range of AKAP/PKA interactions.
(§6) The type I Sigma receptor is antagonized by the antipsychotic drug Haloperidol^(66). To investigate the requirement of Sigma receptor function for late gene expression, cells were treated with 5 μM Haloperidol for 1 hour prior to PMA addition. […] The inhibition of late gene expression was more complete with Haloperidol than with Ganciclovir (FIG. 7D, lanes 5-6). In contrast, the purine […] phosphorylase inhibitor 8-aminoguanosine (8-AMG) had no effect on viral gene expression (FIG. 7D, lane 4).

[8] = tested on: K12 (latent gene); assay: RT-PCR of latent gene K12 in PMA-induced KSHV-infected DMVEC; type: cell-based
Method: as §4, §5, §6

[9] = tested on: immediate early gene K3; assay: PMA-mediated induction of immediate early gene K3; type: cell-based, KSHV
[10] = tested on: Epstein-Barr Virus (EBV); conditions: cited from earlier work
[11] = tested on: mock-infected DMVEC; assay: XTT-based proliferation assay, response to exogenous SCF; type: cell-based, human
Method: as §3
To examine whether KSHV-induced up-regulation of c-Kit had functional consequences, we tested whether the mitogenic response of DMVEC to exogenous SCF was enhanced following KSHV infection. Mock- and KSHV-infected DMVEC were cultured in growth factor depleted medium in the absence and presence of recombinant SCF and proliferation was measured using an XTT-based dye reduction assay^(112). […] In mock-infected cultures, the increase over basal proliferation in the […] of recombinant SCF was never more than 40%, while proliferation of KSHV-infected DMVEC was increased by as much as 85%. During KS disease, an enhanced capacity of KSHV-infected endothelial cells to respond to SCF produced by adjacent endothelial cells, or by macrophages and mast cells infiltrating the KS lesion, would promote more rapid growth of virus infected cells.

[12] = 5 μM Haloperidol for 1 hour prior to PMA addition

Question: What does the source list for Cc1ccc(NC(=O)c2ccc(CN3CCN(C)CC3)cc2)cc1Nc1nccc(-c2cccnc2)n1 [STI 571]?
Answer: effect on cell morphology or viability [1]: no effect; growth of SCLC cell lines in vitro [2]: inhibit; non-specific cytotoxicity (trypan blue exclusion) [3]: not due to non-specific cytotoxicity; focus formation of KSHV-transformed DMVEC ([4]; STI 571 0.01-10 μM, 5 days, organized monolayer re-established): inhibited; drug concentration at which the effect on the transformed phenotype was complete ([4]; dose-dependent): 1 µM; effect on capacity to proliferate in response to exogenous IL-2 [5]: no effect; proliferative response of KSHV-infected DMVEC to exogenous SCF ([6]; 1 μM dose, SCF 50 ng/ml, XTT assay): completely inhibited

Question: For Nc1nc2c(nc(N)n2[C@@H]2O[C@H](CO)[C@@H](O)[C@H]2O)c(=O)[nH]1 [8-aminoguanosine], which “viral gene expression (K12, ORF 65)” value ([7]; 10 μM 8-aminoguanosine) is on record?
Answer: no effect

Question: What does the source list for Nc1nc(O)c2ncn(COC(CO)CO)c2n1 [Ganciclovir]?
Answer: latent gene (K12) expression ([8]; compound 1 hour before PMA, 48 hours, concentration not given): did not interfere; late gene (ORF 65) expression [7]: inhibited

Question: Which “induction of the immediate early gene K3” value [9] does the source give for O=C(CCCN1CCC(O)(c2ccc(Cl)cc2)CC1)c1ccc(F)cc1 [Haloperidol] here?
Answer: neither compound prevented induction

Question: What about the “replication of Epstein-Barr Virus in tissue culture” value [10] of the same compound?
Answer: inhibit

Question: What about the “expression of the latent K12 gene” value [8, 12] of the same compound?
Answer: did not affect

Question: What about the “ORF 65 expression” value [7, 12] of the same compound?
Answer: significantly reduced

Question: What about the “completeness of inhibition of late gene expression compared with Ganciclovir” value ([7]; 5 μM Haloperidol vs 25 μM Ganciclovir) of the same compound?
Answer: more complete

Question: And the “late gene (ORF 65) expression” value [7]?
Answer: inhibited

Question: With “Ht-31: peptide derived from the PKA R-II binding domain of human thyroid AKAP; inhibits AKAP/PKA interactions (WKNVLQGGESTKERFENSNIGTA)” as the compound, how does the “induction of the immediate early gene K3” value [9] read?
Answer: neither compound prevented induction

Question: And the “level of K12 RNA” value ([8]; 25 μM)?
Answer: without affecting

Question: What about the “ORF 65 expression” value ([7]; 5 μM Ht-31, PMA induction) of the same compound?
Answer: efficiently repressed

Question: What about the “ORF 65 expression” value ([7]; 25 μM, PMA induction) of the same compound?
Answer: inhibited; also recorded: efficiently repressed

Question: What about the “late gene (ORF 65) expression” value [7] of the same compound?
Answer: inhibited

Question: Which “SCF concentration of maximal dose-dependent proliferation” value ([11]; mock-infected DMVEC) does the source give for “SCF: recombinant stem cell factor, ligand of c-Kit” here?
Answer: 50 to 100 ng/mL

Question: And the “increase over basal proliferation in the absence of recombinant SCF” value ([11]; mock-infected cultures, exogenous SCF 20-100 ng/ml)?
Answer: ≤ 40%

Question: And the “SCF concentration of maximal dose-dependent proliferation” value ([6]; KSHV-infected DMVEC)?
Answer: 50 to 100 ng/mL

Question: What about the “increase over basal proliferation in the absence of recombinant SCF” value ([6]; KSHV-infected DMVEC, exogenous SCF 20-100 ng/ml) of the same compound?
Answer: ≤ 85%

— patent US20050100891A1, “Gene expression profile for KSHV infection and methods for treating same” (priority 2000, published 2005)
